According to US10023543B2 (CELGENE QUANTICEL RESEARCH, INC., priority 2014, dated 2018):
Where a name gives a salt, the structure may show the parent alone. Read-outs that look alike come from different tables or passages of the source.

How the values were obtained:
[1] = tested on: THP-1 (AML) cells; test: LSD1 CD11b cellular assay (flow cytometry); format: cell-based; settings: Homo sapiens, THP-1, 96 h
[2] = tested on: Kasumi-1; test: Kasumi-1 AML cell line proliferation assay (Cell-MTS assay); format: cell-based; settings: Homo sapiens, 168 hours
Source text: Colorimetric cellular assay to assess the ability of LSD-1 small molecule inhibitors to effect the proliferation of the established AML cancer cell line Kasumi-1.
This Cell-MTS assay is a 7-day plate based colorimetric assay which quantifies the amount of newly generated NADH in the presence and absence of test compound. These NADH levels are used as a proxy for the quantification of cancer cell proliferation.
The established cancer cell line Kasumi-1 with a verified p53 mutation were purchased from American Type Culture Collection (ATCC) and routinely passaged according to ATCC published protocols. For routine assay these cells were seeded at a density of 20,000 cells per 96-well. […] At the end of this compound incubation period, 80 μl of media is removed and 20 μL of CellTiter 96® AQueous Non-Radioactive Cell Proliferation Assay solution (Promega) is added. The cells are incubated until the OD490 is >0.6. IC50 values are calculated using the IDBS XLfit software package and include background subtracted OD490 values and normalization to DMSO controls.

[3] = CD11b expressing cells, 4 days, read-out: THP-1 IC50

IC50 [1, 3] | Compound | IC50 ([1]; read-out: THP-1 IC50 (μM)) | IC50 [2]
< 0.1 µM | COc1ccc(-c2c(-c3ccc(C#N)c(F)c3)nc(N3CCC(N)CC3)n(C)c2=O)cc1 [Example 6, 4-[2-(4-amino-piperidin-1-yl)-5-(4-methoxy-phenyl)-1-methyl-6-oxo-1,6-dihydro-pyrimidin-4-yl]-2-fluoro-benzonitrile] |  | < 100 nM
< 0.1 µM | Cc1ccc(-c2c(-c3ccc(C#N)c(F)c3)nc(N3CCC(N)CC3)n(C)c2=O)cn1 [Example 9] |  | < 100 nM
< 0.1 µM | Cn1c(N2CCC(N)CC2)nc(-c2ccc(C#N)c(F)c2)c(-c2cnn(CC(F)(F)F)c2)c1=O [Example 34, 4-{2-(4-amino-piperidin-1-yl)-1-methyl-6-oxo-5-[1-(2,2,2-trifluoro-ethyl)-1H-pyrazol-4-yl]-1,6-dihydro-pyrimidin-4-yl}-2-fluoro-benzonitrile] |  | < 100 nM
< 0.1 µM | COc1ccc(-c2c(-c3ccc(C#N)c(F)c3)nc(N3CCC(N(C)C)CC3)n(C)c2=O)cn1 [Example 92, 4-[2-[4-(dimethylamino)piperidin-1-yl]-5-(6-methoxypyridin-3-yl)-1-methyl-6-oxopyrimidin-4-yl]-2-fluorobenzonitrile] |  | 
< 0.1 µM | CCOc1ncc(-c2c(-c3ccc(C#N)c(F)c3)nc(N3CCC(N)CC3)n(C)c2=O)cc1F [Example 93, 4-[2-(4-aminopiperidin-1-yl)-5-(6-ethoxy-5-fluoropyridin-3-yl)-1-methyl-6-oxopyrimidin-4-yl]-2-fluorobenzonitrile] |  | 
< 0.1 µM | Cn1c(N2CCC(N)CC2)nc(-c2ccc(C#N)c(F)c2)c(-c2ccc(CCO)cc2)c1=O [Example 99, 4-[2-(4-aminopiperidin-1-yl)-5-[4-(2-hydroxyethyl)phenyl]-1-methyl-6-oxopyrimidin-4-yl]-2-fluorobenzonitrile] |  | 
< 0.1 µM | Cn1c(N2CCC(N)CC2)nc(-c2ccc(C#N)c(F)c2)c(-c2ccc(CO)cc2)c1=O [Example 100, 4-[2-(4-aminopiperidin-1-yl)-5-[4-(hydroxymethyl)phenyl]-1-methyl-6-oxopyrimidin-4-yl]-2-fluorobenzonitrile] |  | 
< 0.1 µM | Cn1c(N2CCC(N)CC2)nc(-c2ccc(C#N)c(F)c2)c(-c2ccc(F)cc2)c1=O [Example 101, 4-[2-(4-aminopiperidin-1-yl)-5-(4-fluorophenyl)-1-methyl-6-oxopyrimidin-4-yl]-2-fluorobenzonitrile] |  | 
< 0.1 µM | Cn1c(N2CCC(N)CC2)nc(-c2ccc(C#N)c(F)c2)c(-c2cc(F)cc(F)c2)c1=O [Example 103, 4-[2-(4-aminopiperidin-1-yl)-5-(3,5-difluorophenyl)-1-methyl-6-oxopyrimidin-4-yl]-2-fluorobenzonitrile] |  | 
< 0.1 µM | COCc1ccc(-c2c(-c3ccc(C#N)c(F)c3)nc(N3CCC(N)CC3)n(C)c2=O)cc1 [Example 107, 4-[2-(4-aminopiperidin-1-yl)-5-[4-(methoxymethyl)phenyl]-1-methyl-6-oxopyrimidin-4-yl]-2-fluorobenzonitrile] |  | 
0.1 to 1 µM | Cn1c(N2CCC(N)CC2)nc(-c2ccc(C#N)c(F)c2)cc1=O [Example 108, 4-[2-(4-aminopiperidin-1-yl)-1-methyl-6-oxopyrimidin-4-yl]-2-fluorobenzonitrile] |  | 
< 0.1 µM | COc1ccc(-c2c(-c3ccc(C#N)c(F)c3)nc(N3CCC(N)CC3)[nH]c2=O)cc1 [Example 122, 4-[2-(4-amino-piperidin-1-yl)-5-(4-methoxy-phenyl)-6-oxo-1,6-dihydro-pyrimidin-4-yl]-2-fluoro-benzonitrile] |  | 

Second part, the compound before the results:

Compound | IC50 [1, 3] | IC50 ([1]; read-out: THP-1 IC50 (μM)) | IC50 [2]
Cc1ccc(-c2c(-c3ccc(C#N)cc3)nc(N3CCC(N)CC3)n(C)c2=O)cc1 [Example 1, 4-(2-(4-aminopiperidin-1-yl)-1-methyl-6-oxo-5-p-tolyl-1,6-dihydropyrimidin-4-yl)benzonitrile, HCl salt] |  | < 0.1 µM | < 100 nM
COc1ccc(-c2c(-c3ccc(C#N)cc3)nc(N3CCC(N)CC3)n(C)c2=O)cn1 [Example 3, 4-[2-(4-amino-piperidin-1-yl)-5-(6-methoxy-pyridin-3-yl)-1-methyl-6-oxo-1,6-dihydro-pyrimidin-4-yl]-benzonitrile] | < 0.1 µM |  | < 100 nM
Cc1ccc(-c2c(-c3ccc(C#N)cc3)nc(N3CCC(N)CC3)n(C)c2=O)cn1 [Example 4, 4-[2-(4-amino-piperidin-1-yl)-1-methyl-5-(6-methyl-pyridin-3-yl)-6-oxo-1,6-dihydro-pyrimidin-4-yl]-benzonitrile] | < 0.1 µM |  | 100 to 1000 nM
COc1ccc(-c2c(-c3ccc(C#N)cc3)nc(N3CCC(N)CC3)n(C)c2=O)cc1F [Example 5] |  | < 0.1 µM | < 100 nM
COc1ccc(-c2c(-c3ccc(C#N)c(F)c3)nc(N3CCC(N)CC3)n(C)c2=O)cn1 [Example 8, 4-[2-(4-amino-piperidin-1-yl)-5-(6-methoxy-pyridin-3-yl)-1-methyl-6-oxo-1,6-dihydro-pyrimidin-4-yl]-2-fluoro-benzonitrile] | < 0.1 µM |  | < 100 nM
Cn1cc2cc(-c3c(-c4ccc(C#N)cc4)nc(N4CCC(N)CC4)n(C)c3=O)ccc2n1 [Example 24, 4-[2-(4-aminopiperidyl)-1-methyl-5-(2-methyl(2H-indazol-5-yl))-6-oxohydropyrimidin-4-yl]benzenecarbonitrile] | < 0.1 µM |  | < 100 nM
Cn1c(N2CCC(N)CC2)nc(-c2ccc(C#N)c(F)c2)c(-c2ccc3c(cnn3C)c2)c1=O [Example 35, 4-[2-(4-amino-piperidin-1-yl)-1-methyl-5-(1-methyl-1H-indazol-5-yl)-6-oxo-1,6-dihydro-pyrimidin-4-yl]-2-fluoro-benzonitrile] | < 0.1 µM |  | < 100 nM
Cn1c(N2CCC(N)CC2)nc(-c2ccc(C#N)cc2)c(-c2cnn(CC(F)(F)F)c2)c1=O [Example 36, 4-{2-(4-amino-piperidin-1-yl)-1-methyl-6-oxo-5-[1-(2,2,2-trifluoro-ethyl)-1H-pyrazol-4-yl]-1,6-dihydro-pyrimidin-4-yl}-benzonitrile] | < 0.1 µM |  | < 100 nM
CNC1CCN(c2nc(-c3ccc(C#N)c(F)c3)c(-c3ccc4nn(C)cc4c3)c(=O)n2C)CC1 [Example 65, 2-fluoro-4-[1-methyl-2-(4-methylamino-piperidin-1-yl)-5-(2-methyl-2H-indazol-5-yl)-6-oxo-1,6-dihydro-pyrimidin-4-yl]-benzonitrile] | < 0.1 µM |  | < 100 nM
CNc1ccc(-c2c(-c3ccc(C#N)c(F)c3)nc(N3CCC(N)CC3)n(C)c2=O)cc1F [Example 91, 4-[2-(4-aminopiperidin-1-yl)-5-[3-fluoro-4-(methylamino)phenyl]-1-methyl-6-oxopyrimidin-4-yl]-2-fluorobenzonitrile] | < 0.1 µM |  | 
CCOc1ccc(-c2c(-c3ccc(C#N)c(F)c3)nc(N3CCC(N)CC3)n(C)c2=O)cn1 [Example 94, 4-[2-(4-aminopiperidin-1-yl)-5-(6-ethoxypyridin-3-yl)-1-methyl-6-oxopyrimidin-4-yl]-2-fluorobenzonitrile] | < 0.1 µM |  | 
CCOc1ccc(-c2c(-c3ccc(C#N)c(F)c3)nc(N3CCC(N)CC3)n(C)c2=O)cc1 [Example 95, 4-[2-(4-aminopiperidin-1-yl)-5-(4-ethoxyphenyl)-1-methyl-6-oxopyrimidin-4-yl]-2-fluorobenzonitrile] | < 0.1 µM |  | 
Cn1c(N2CCC(N)CC2)nc(-c2ccc(C#N)cc2)c(-c2ccc(OCCO)cc2)c1=O [Example 97, 4-[2-(4-aminopiperidin-1-yl)-5-[4-(2-hydroxyethoxy)phenyl]-1-methyl-6-oxopyrimidin-4-yl]benzonitrile] | < 0.1 µM |  | 
COCCOc1ccc(-c2c(-c3ccc(C#N)c(F)c3)nc(N3CCC(N)CC3)n(C)c2=O)cc1 [Example 98, 4-[2-(4-aminopiperidin-1-yl)-5-[4-(2-methoxyethoxy)phenyl]-1-methyl-6-oxopyrimidin-4-yl]-2-fluorobenzonitrile] | < 0.1 µM |  | 
Cn1c(N2CCC(N)CC2)nc(-c2ccc(C#N)c(F)c2)c(-c2cccc(F)c2)c1=O [Example 102, 4-[2-(4-aminopiperidin-1-yl)-5-(3-fluorophenyl)-1-methyl-6-oxopyrimidin-4-yl]-2-fluorobenzonitrile] | < 0.1 µM |  | 
Cn1c(N2CCC(N)CC2)nc(-c2ccc(C#N)c(F)c2)c(-c2ccc(F)c(F)c2)c1=O [Example 104, 4-[2-(4-aminopiperidin-1-yl)-5-(3,4-difluorophenyl)-1-methyl-6-oxopyrimidin-4-yl]-2-fluorobenzonitrile] | < 0.1 µM |  | 
Cn1c(N2CCC(N)CC2)nc(-c2ccc(C#N)c(F)c2)c(-c2ccc(S(C)(=O)=O)cc2)c1=O [Example 105, 4-[2-(4-aminopiperidin-1-yl)-1-methyl-5-(4-methylsulfonylphenyl)-6-oxopyrimidin-4-yl]-2-fluorobenzonitrile] | < 0.1 µM |  | 
Cn1c(N2CCC(N)CC2)nc(-c2ccc(C#N)c(F)c2)c(-c2ccc(Cl)cc2)c1=O [Example 106, 4-[2-(4-aminopiperidin-1-yl)-5-(4-chlorophenyl)-1-methyl-6-oxopyrimidin-4-yl]-2-fluorobenzonitrile] | < 0.1 µM |  | 
C#Cc1c(-c2ccc(C#N)c(F)c2)nc(N2CCC(N)CC2)n(C)c1=O [Example 110] | 0.1 to 1 µM |  | 
COc1ccc(-c2c(-c3ccc(Cl)c(F)c3)nc(N3CCC(N)CC3)n(C)c2=O)cc1 [Example 111, 2-(4-amino-piperidin-1-yl)-6-(4-chloro-3-fluoro-phenyl)-5-(4-methoxy-phenyl)-3-methyl-3H-pyrimidin-4-one] | 0.1 to 1 µM |  | 
